Measured values taken from patent US10329278B2, “Pharmaceutical compounds” (Heptares Therapeutics Limited, priority 2017, dated 2019).

Columns and labels:
Format in all cases: cell-based
[1] = target: T1, human muscarinic M2 receptor (Homo sapiens, UniProt P08172); assay: Alphascreen Surefire phospho-ERK1/2 functional assay, M2; conditions: for pEC50 M2 / % Emax cf. ACh (M2) / EC50: CHO cells stably expressing human M2; for pEC50 M2 / EC50: agonist 5 min, 37° C.; for % Emax cf. ACh (M2): relative to ACh; for EC50: read-out: pEC50 M2 (converted); for Emax: CHO, read-out: % Emax cf. ACh (M2)
T1 sequence (P08172 1-466): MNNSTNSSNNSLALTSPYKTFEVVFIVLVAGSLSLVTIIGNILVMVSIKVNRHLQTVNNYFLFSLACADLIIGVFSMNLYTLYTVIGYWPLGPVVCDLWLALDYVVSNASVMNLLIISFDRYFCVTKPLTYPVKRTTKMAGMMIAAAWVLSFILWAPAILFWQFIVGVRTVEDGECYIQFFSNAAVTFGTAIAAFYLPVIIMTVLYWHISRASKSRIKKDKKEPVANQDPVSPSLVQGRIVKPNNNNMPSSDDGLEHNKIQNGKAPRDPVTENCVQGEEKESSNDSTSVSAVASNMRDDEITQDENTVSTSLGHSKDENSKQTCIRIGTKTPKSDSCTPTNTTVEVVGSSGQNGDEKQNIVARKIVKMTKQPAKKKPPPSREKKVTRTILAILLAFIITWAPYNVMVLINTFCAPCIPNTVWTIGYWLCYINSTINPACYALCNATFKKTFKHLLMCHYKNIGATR
Procedure: (§1) ERK1/2 phosphorylation is a downstream consequence of both Gq/11 and Gi/o protein coupled receptor activation, making it highly suitable for the assessment of M1, M3 (Gq/11 coupled) and M2, M4 receptors (Gi/o coupled), rather than using different assay formats for different receptor subtypes. CHO cells stably expressing the human muscarinic M1, M2, M3 or M4 receptor were plated (25K/well) onto 96-well tissue culture plates in MEM-alpha+10% dialysed FBS. Once adhered, cells were serum-starved overnight. Agonist stimulation was performed by the addition of 5 μL agonist to the cells for 5 min (37° C.). Media was removed and 50 μL of lysis buffer added. After 15 min, a 4 μL sample was transferred to 384-well plate and 7 μL of detection mixture added.

[2] = target: T2, human muscarinic M3 receptor (Homo sapiens, UniProt P20309); assay: Alphascreen Surefire phospho-ERK1/2 functional assay, M3; conditions: for pEC50 M3 / % Emax cf. ACh (M3) / EC50: CHO cells stably expressing human M3; for pEC50 M3 / EC50: agonist 5 min, 37° C.; for % Emax cf. ACh (M3): relative to ACh; for EC50: read-out: pEC50 M3 (converted); for Emax: CHO, read-out: % Emax cf. ACh (M3)
T2 construct: expressed in transfected cells
T2 sequence (P20309 whole entry): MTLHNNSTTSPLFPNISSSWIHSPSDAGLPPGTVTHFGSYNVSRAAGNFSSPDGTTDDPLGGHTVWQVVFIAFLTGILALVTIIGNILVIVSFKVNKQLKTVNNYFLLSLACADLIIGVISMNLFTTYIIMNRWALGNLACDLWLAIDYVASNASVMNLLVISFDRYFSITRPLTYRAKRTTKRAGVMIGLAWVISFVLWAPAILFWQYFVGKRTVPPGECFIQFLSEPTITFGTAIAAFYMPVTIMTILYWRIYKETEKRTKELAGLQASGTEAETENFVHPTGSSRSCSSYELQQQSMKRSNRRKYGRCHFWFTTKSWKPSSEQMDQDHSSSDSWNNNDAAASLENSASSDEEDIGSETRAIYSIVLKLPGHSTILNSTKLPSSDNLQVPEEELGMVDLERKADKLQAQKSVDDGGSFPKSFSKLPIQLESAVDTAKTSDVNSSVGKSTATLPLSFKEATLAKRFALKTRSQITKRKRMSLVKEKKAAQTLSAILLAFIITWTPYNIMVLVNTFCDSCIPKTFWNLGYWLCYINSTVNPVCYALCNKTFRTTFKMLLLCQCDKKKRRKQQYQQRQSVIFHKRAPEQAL
Procedure: as §1

[3] = target: T3, human muscarinic M1 receptor (Homo sapiens, UniProt P11229); assay: Alphascreen Surefire phospho-ERK1/2 functional assay, M1; conditions: for pEC50 M1 / % Emax cf. ACh (M1) / EC50: CHO cells stably expressing human M1; for pEC50 M1 / EC50: agonist 5 min, 37° C.; for % Emax cf. ACh (M1) / Emax: relative to ACh; for EC50: read-out: pEC50 M1 (converted); for Emax: CHO, read-out: % Emax cf. ACh (M1), CHO cells stably expressing human M1
T3 sequence (P11229 1-460): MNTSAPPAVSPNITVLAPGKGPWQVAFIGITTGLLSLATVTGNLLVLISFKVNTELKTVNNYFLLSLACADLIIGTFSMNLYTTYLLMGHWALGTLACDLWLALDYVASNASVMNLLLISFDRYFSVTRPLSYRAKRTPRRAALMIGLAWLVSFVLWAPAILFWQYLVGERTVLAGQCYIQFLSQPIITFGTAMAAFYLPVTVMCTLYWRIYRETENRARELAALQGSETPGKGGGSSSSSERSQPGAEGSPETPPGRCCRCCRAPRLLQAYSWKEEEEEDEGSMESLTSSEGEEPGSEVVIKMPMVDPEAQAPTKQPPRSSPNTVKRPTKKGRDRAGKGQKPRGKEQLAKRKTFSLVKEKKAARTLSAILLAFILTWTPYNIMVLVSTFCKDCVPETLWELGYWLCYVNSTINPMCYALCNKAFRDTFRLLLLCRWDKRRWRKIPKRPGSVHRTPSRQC
Procedure: as §1

[4] = target: T4, human muscarinic M4 receptor (Homo sapiens, UniProt P08173); assay: Alphascreen Surefire phospho-ERK1/2 functional assay, M4; conditions: for pEC50 M4 / % Emax cf. ACh (M4) / EC50: CHO cells stably expressing human M4; for pEC50 M4 / EC50: agonist 5 min, 37° C.; for % Emax cf. ACh (M4) / Emax: relative to ACh; for EC50: read-out: pEC50 M4 (converted); for Emax: CHO, read-out: % Emax cf. ACh (M4), CHO cells stably expressing human M4
T4 construct: expressed in transfected cells
T4 sequence (P08173 1-479): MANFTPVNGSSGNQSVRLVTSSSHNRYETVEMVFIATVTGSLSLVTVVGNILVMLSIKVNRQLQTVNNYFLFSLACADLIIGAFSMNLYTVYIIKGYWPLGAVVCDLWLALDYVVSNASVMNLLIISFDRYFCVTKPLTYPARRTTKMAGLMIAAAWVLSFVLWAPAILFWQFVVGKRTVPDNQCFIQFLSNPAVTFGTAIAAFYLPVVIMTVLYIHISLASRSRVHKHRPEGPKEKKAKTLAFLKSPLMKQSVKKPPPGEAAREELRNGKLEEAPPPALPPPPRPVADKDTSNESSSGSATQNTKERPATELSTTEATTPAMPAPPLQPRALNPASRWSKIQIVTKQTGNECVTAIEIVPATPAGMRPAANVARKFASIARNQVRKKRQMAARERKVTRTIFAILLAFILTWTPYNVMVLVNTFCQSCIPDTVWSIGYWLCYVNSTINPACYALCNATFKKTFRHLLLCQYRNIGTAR
Procedure: as §1

Row | Structure (SMILES) | pEC50 M2 [1] | % Emax cf. ACh (M2) [1] [%] | pEC50 M3 [2] | % Emax cf. ACh (M3) [2] [%] | pEC50 M1 [3] | % Emax cf. ACh (M1) [3] [%] | pEC50 M4 [4] | % Emax cf. ACh (M4) [4] [%] | EC50 [1] [nM] | Emax [1] [%] | EC50 [2] [nM] | Emax [2] [%] | EC50 [3] [nM] | Emax [3] [%] | EC50 [4] [nM] | Emax [4] [%]
1 | CCOC(=O)N1C2COCC1CC(N1CC3C(C1)C3C(=O)N(CC)CC)C2 (single isomer, unassigned; isomer 2) [10-2 Isomer 2] | < 4.70 | 25 | < 4.70 | 10 | 7.15 | 113 | 6.04 | 62 |  |  |  |  |  |  |  | 
2 | CCOC(=O)[C@H]1[C@@H]2CN(C3CC4(C3)CN(C(=O)OCC)C4)C[C@@H]21 [Example 1-1, ethyl 6-[(1R,5S,6r)-6-(ethoxycarbonyl)-3-azabicyclo[3.1.0]hex-3-yl]-2-azaspiro[3.3]heptane-2-carboxylate] |  |  |  |  |  |  |  |  | > 20000 | 12 | > 20000 | 6 | 9330 | 115 | 316 | 73
3 | CCOC(=O)N1CCC2(CC(N3CC4C(C3)C4C(CC)=NOC)C2)C1 (single isomer, unassigned) [2-25 Isomer 4] |  |  |  |  |  | 65 |  | 48 | > 20000 | 24 | > 20000 | 4 | 324 |  | 151 | 
4 | CCOC(=O)N1CCC2(CC(N3C[C@@H]4[C@H](C3)[C@H]4c3ccnn3C)C2)C1 (single isomer, unassigned) [2-29 Isomer 2] |  |  |  |  |  |  |  |  | > 20000 | 36 | > 20000 | 2 | 646 | 43 | 87.1 | 83
5 | CCOC(=O)N1C2COCC1CC(N1CC3C(C1)C3C(=O)N1CCOCC1)C2 (single isomer, unassigned; isomer 1) [10-13 Isomer 1] | < 4.70 | 24 | < 4.70 | 68 | 6.51 | 104 | 5.95 | 64 |  |  |  |  |  |  |  | 
6 | CCOC(=O)N1C2COCC1CC(N1CC3C(C1)C3C(=O)N1CCOCC1)C2 (single isomer, unassigned; isomer 2) [10-13 Isomer 2] | < 4.70 | 24 | < 4.70 | 22 | 6.43 | 101 | 4.99 | 59 |  |  |  |  |  |  |  | 
7 | CCOC(=O)N1C2CCCC1CC(N1CC3C(C1)C3C(=O)N(C)CC)C2 (single isomer, unassigned; isomer 1) [9-1 Isomer 1] | < 4.70 | 19 | < 4.70 | 21 | 7.04 | 93 | 6.06 | 57 |  |  |  |  |  |  |  | 
8 | CCOC(=O)C1C2CN(C3CC4(CCN(C(=O)OCC)C4)C3)CC21 (mixture of isomers) [2-1 Mixture of isomers] |  |  |  |  |  |  |  |  | > 20000 | 7 | > 20000 | 0 | > 20000 | 22 | 77.6 | 86
9 | CCOC(=O)N1CCC2(CC(N3CC4C(C3)C4OC(C)c3ccccc3)C2)C1 (single isomer, unassigned) [2-28 Isomer 2] |  |  |  |  |  | 104 |  | 51 | > 20000 | 7 | > 20000 | 5 | 64.6 |  | 53.7 | 
10 | CCOC(=O)N1CCC2(CC(N3CC4C(C3)C4C(=O)N3CCC34CC4)C2)C1 (single isomer, unassigned) [2-19 Isomer 2] |  |  |  |  |  |  |  |  | > 20000 | 16 | > 20000 | 35 | 13.2 | 93 | 37.2 | 95
